Tested on: hypoxia-inducible endogenous VEGF expression
Experiment: Hypoxia-inducible endogenous VEGF expression ELISA in HeLa cells, dose-response EC50 (Table 3)
Type: cell-based, human
Conditions: Homo sapiens, HeLa, read-out: ELISA EC50 μM
Summary of the method: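 HeLa cells kept 24-48 h under hypoxia (1% O2, 5% CO2, nitrogen balance) with or without compound, e.g. seven concentrations; secreted VEGF in conditioned medium quantified by ELISA against a standard curve. Parallel Cell Titer Glo viability under identical conditions excludes cytotoxicity.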

| SMILES | EC50 |
| --- | --- |
| COCCN(CCCOc1ccc(C2c3[nH]c4ccc(Cl)cc4c3CCN2C(=O)Oc2ccc(Cl)cc2)cc1)CCOC (stereo not drawn) [Compound 916] | < 0.008 µM |
| COCCCNCCCCCCOc1ccc(C2c3[nH]c4ccc(Cl)cc4c3CCN2C(=O)Oc2ccc(Cl)cc2)cc1 (stereo not drawn) [Compound 785] | < 0.008 µM |
| O=C(Oc1ccc(Cl)cc1)N1CCc2c([nH]c3ccc(Cl)cc23)C1c1ccc(OCCN2CCOCC2)cc1 (stereo not drawn) [Compound 331] | > 1 µM |
| CN(C)CCCOc1ccc(C2c3[nH]c4ccc(Cl)cc4c3CCN2C(=O)Oc2ccc(Br)cc2)cc1 (stereo not drawn) [Compound 468] | 0.008 to 0.04 µM |
| O=C(Oc1ccc(Cl)cc1)N1CCc2c([nH]c3ccc(Cl)cc23)C1c1ccc(OCCCCN2CCCCC2)cc1 (stereo not drawn) [Compound 703] | 0.008 to 0.04 µM |
| CN1CCN(CCCOc2ccc(C3c4[nH]c5ccc(Cl)cc5c4CCN3C(=O)Oc3ccc(Cl)cc3)cc2)CC1 (stereo not drawn) [Compound 961] | 0.008 to 0.04 µM |
| CN1CCN(CC(O)COc2ccc(C3c4[nH]c5ccc(Cl)cc5c4CCN3C(=O)Oc3ccc(F)cc3)cc2)CC1 (stereo not drawn) [Compound 963] | 0.008 to 0.04 µM |
| O=C(Oc1ccc(Cl)cc1)N1CCc2c([nH]c3ccc(Cl)cc23)C1c1ccc(OCCCCCCNCCO)cc1 (stereo not drawn) [Compound 782] | < 0.008 µM |
| CC1(C)C(=O)NC(=O)N1CCCOc1ccc(C2c3[nH]c4ccc(Cl)cc4c3CCN2C(=O)Oc2ccc(Cl)cc2)cc1 (stereo not drawn) [Compound 1671] | < 0.008 µM |
| O=C(Oc1ccc(Cl)cc1)N1CCc2c([nH]c3ccc(Cl)cc23)C1c1ccc(OCCCCNCCO)cc1 (stereo not drawn) [Compound 699] | 0.008 to 0.04 µM |
| COc1ccc(OC(=O)N2CCc3c([nH]c4ccc(Cl)cc34)C2c2ccc(OCCCN(C)C)cc2)cc1 (stereo not drawn) [Compound 501] | 0.04 to 0.2 µM |
| COCCN(C)CC(O)COc1ccc(C2c3[nH]c4ccc(Cl)cc4c3CCN2C(=O)Oc2ccc(Cl)cc2)cc1 (stereo not drawn) [Compound 964] | 0.008 to 0.04 µM |
| O=C(Oc1ccc(F)cc1)N1CCc2c([nH]c3ccc(Cl)cc23)C1c1ccc(OCCCN2CCSCC2)cc1 (stereo not drawn) [Compound 991] | 0.04 to 0.2 µM |
| COCCN(CCCOc1ccc(C2c3[nH]c4ccc(Cl)cc4c3CCN2C(=O)Oc2ccc(F)cc2)cc1)CCOC (stereo not drawn) [Compound 990] | < 0.008 µM |
| Cc1ccc(OC(=O)N2CCc3c([nH]c4ccc(Cl)cc34)[C@@H]2c2ccc(OCCC(O)CN(CCO)CCO)cc2)cc1 (stereo partly drawn) [Compound 1288] | 0.008 to 0.04 µM |
| CN1CCCC1CCOc1ccc(C2c3[nH]c4ccc(Cl)cc4c3CCN2C(=O)Oc2ccc(F)cc2)cc1 (stereo not drawn) [Compound 1008] | 0.04 to 0.2 µM |
| CN1CCN(CCCCOc2ccc(C3c4[nH]c5ccc(Cl)cc5c4CCN3C(=O)Oc3ccc(Cl)cc3)cc2)CC1 (stereo not drawn) [Compound 704] | 0.04 to 0.2 µM |
| O=C(COc1ccc(C2c3[nH]c4ccc(Cl)cc4c3CCN2C(=O)Oc2ccc(F)cc2)cc1)NCCN1CCOCC1 (stereo not drawn) [Compound 1022] | 0.04 to 0.2 µM |
| O=C(Oc1ccc(Cl)cc1)N1CCc2c([nH]c3ccc(Cl)cc23)C1c1ccc(OCCCCN2CCOCC2)cc1 (stereo not drawn) [Compound 702] | 0.008 to 0.04 µM |

Same assay, conditions: Homo sapiens; HeLa cells, hypoxic conditions (1% O2), 24-48 hours, VEGF in conditioned media; read-out: ELISA EC50

| SMILES | EC50 |
| --- | --- |
| COc1cc(C2c3[nH]c4ccc(Cl)cc4c3CCN2C(=O)Oc2ccc(Cl)cc2)ccc1OCCn1cncn1 (stereo not drawn) [Compound 1086] | 0.008 to 0.04 µM |
| COCCOCCOc1ccc(C2c3[nH]c4ccc(Cl)cc4c3CCN2C(=O)Oc2ccc(Cl)cc2)cc1 (stereo not drawn) [Compound 675] | 0.008 to 0.04 µM |
| COc1cc(C2c3[nH]c4ccc(Cl)cc4c3CCN2C(=O)Oc2ccccc2)ccc1OCCCn1nccn1 (stereo not drawn) [Compound 1145] | 0.008 to 0.04 µM |
| COc1ccc(OC(=O)N2CCc3c([nH]c4ccc(Cl)cc34)C2c2ccc(OCC(O)CO)cc2)cc1 (stereo not drawn) [Compound 635] | 0.008 to 0.04 µM |
| O=C(Oc1ccc(Cl)cc1)N1CCc2c([nH]c3ccc(Cl)cc23)[C@@H]1c1ccc(O)cc1 [Compound 1160] | < 0.008 µM |
| COCCOCCOc1ccc(C2c3[nH]c4ccc(Cl)cc4c3CCN2C(=O)Oc2ccccc2)cc1 (stereo not drawn) [Compound 670] | < 0.008 µM |
| C=CCOc1ccc([C@H]2c3[nH]c4ccc(Cl)cc4c3CCN2C(=O)Oc2ccc(Cl)cc2)cc1 [Compound 1159] | < 0.008 µM |
| COCCOc1ccc(C2c3[nH]c4ccc(Cl)cc4c3CCN2C(=O)Oc2ccc(OC)cc2)cc1 (stereo not drawn) [Compound 465] | 0.008 to 0.04 µM |
| O=C(Oc1ccc(F)cc1)N1CCc2c([nH]c3ccc(Cl)cc23)C1c1ccc(F)cc1 (stereo not drawn) [Compound 452] | 0.008 to 0.04 µM |
| O=C(Oc1ccc(F)cc1)N1CCc2c([nH]c3ccc(Cl)cc23)C1c1ccc(O)cc1 (stereo not drawn) [Compound 575] | 0.2 to 1 µM |
| CCS(=O)(=O)Nc1ccc(C2c3[nH]c4ccc(Cl)cc4c3CCN2C(=O)Oc2ccc(Cl)cc2)cc1 (stereo not drawn) [Compound 958] | 0.008 to 0.04 µM |
| O=C(Oc1ccccc1Cl)N1CCc2c([nH]c3ccc(Cl)cc23)C1c1ccc(C(F)(F)F)cc1 (stereo not drawn) [Compound 594] | 0.04 to 0.2 µM |
| O=C(Oc1ccccc1)N1CCc2c([nH]c3ccc(Cl)cc23)C1c1ccc(OCC(O)CO)cc1 (stereo not drawn) [Compound 626] | 0.008 to 0.04 µM |
| O=C(Oc1ccc(Br)cc1)N1CCc2c([nH]c3ccc(Cl)cc23)C1c1ccc(OCC2OCCO2)cc1 (stereo not drawn) [Compound 1054] | < 0.008 µM |
| O=C(Oc1ccc(Cl)cc1)N1CCc2c([nH]c3ccc(Cl)cc23)C1c1ccc(OCCn2cncn2)cc1 (stereo not drawn) [Compound 840] | 0.008 to 0.04 µM |
| O=C(Oc1ccc(Cl)cc1)N1CCc2c([nH]c3ccc(Br)cc23)C1c1ccc(C(F)(F)F)cc1 (stereo not drawn) [Compound 405] | < 0.008 µM |
| Cc1ccc(OC(=O)N2CCc3c([nH]c4ccc(Cl)cc34)C2c2ccc(OCC(O)CO)cc2)cc1 (stereo not drawn) [Compound 631] | < 0.008 µM |
| O=C(Oc1ccc(Cl)cc1)N1CCc2c([nH]c3ccc(Cl)cc23)C1c1ccc(F)cc1 (stereo not drawn) [Compound 444] | 0.008 to 0.04 µM |
| O=C(Oc1ccc(Cl)cc1)N1CCc2c([nH]c3ccc(Cl)cc23)C1c1ccc(OCC[C@H](O)CO)cc1 (stereo partly drawn) [Compound 1172] | < 0.008 µM |
| O=C(Oc1ccccc1Cl)N1CCc2c([nH]c3ccc(Cl)cc23)C1c1ccc(OCCCn2cncn2)cc1 (stereo not drawn) [Compound 926] | < 0.008 µM |
| C=CCOc1ccc(C2c3[nH]c4ccc(Cl)cc4c3CCN2C(=O)Oc2ccccc2)cc1 (stereo not drawn) [Compound 413] | < 0.008 µM |
| O=C(Oc1ccc(Cl)cc1)N1CCc2c([nH]c3ccc(Cl)cc23)[C@H]1c1ccc(OCCCn2nccn2)cc1 [Compound 1127] | 0.04 to 0.2 µM |
| COc1ccc(C2c3[nH]c4ccc(Cl)cc4c3CCN2C(=O)Oc2ccc(C)cc2)c(F)c1 (stereo not drawn) [Compound 1266] | < 0.008 µM |
| O=C(Oc1ccc(F)cc1)N1CCc2c([nH]c3ccc(Cl)cc23)C1c1ccc(OCC2OCCO2)cc1 (stereo not drawn) [Compound 1051] | < 0.008 µM |
| CC(=O)Oc1ccc(C2c3[nH]c4ccc(Cl)cc4c3CCN2C(=O)Oc2ccc(Cl)cc2)cc1 (stereo not drawn) [Compound 463] | 0.008 to 0.04 µM |
| COc1ccc(OC(=O)N2CCc3c([nH]c4ccc(Br)cc34)[C@@H]2c2ccc(Cl)cc2)cc1 [#332] | > 1 µM |
| CC(C)C(=O)Nc1ccc(C2c3[nH]c4ccc(Cl)cc4c3CCN2C(=O)Oc2ccc(Cl)cc2)cc1 (stereo not drawn) [Compound 482] | 0.04 to 0.2 µM |
| COc1ccc(OC(=O)N2CCc3c([nH]c4ccc(Cl)cc34)C2c2ccc(OCCCO)cc2)cc1 (stereo not drawn) [Compound 1058] | < 0.008 µM |

Same assay, conditions: Homo sapiens; HeLa cells, hypoxic conditions (1% O2), VEGF ELISA of conditioned media; read-out: ELISA EC50

| SMILES | EC50 |
| --- | --- |
| CC(CO)(CO)COc1ccc(C2c3[nH]c4ccc(Br)cc4c3CCN2C(=O)Oc2ccc(Cl)cc2)cc1 (stereo not drawn) [Compound 1353] | < 0.008 µM |
| O=C(Oc1ccc(Cl)cc1)N1CCc2c([nH]c3ccc(Cl)cc23)[C@@H]1c1ccc(OC2OC(CO)C(O)C(O)C2O)cc1 (stereo partly drawn) [Compound 1695] | 0.2 to 1 µM |
| CCSCCCOc1ccc(C2c3[nH]c4ccc(Cl)cc4c3CCN2C(=O)Oc2ccc(Cl)cc2)cc1 (stereo not drawn) [Compound 1552] | < 0.008 µM |
| O=C(NCC(O)CCOc1ccc([C@H]2c3[nH]c4ccc(Cl)cc4c3CCN2C(=O)Oc2ccc(Cl)cc2)cc1)c1ccncc1 (stereo partly drawn) [Compound 1627] | < 0.008 µM |
| C[Si](C)(C)CCS(=O)(=O)N1CCC(Oc2ccc(C3c4[nH]c5ccc(Cl)cc5c4CCN3C(=O)Oc3ccc(Cl)cc3)cc2)CC1 (stereo not drawn) [Compound 1581] | < 0.008 µM |
| C#CCOc1ccc([C@H]2c3[nH]c4ccc(Cl)cc4c3CCN2C(=O)Oc2ccc(Cl)cc2)cc1 [Compound 1612] | < 0.008 µM |
| O=C(Oc1ccc(Cl)cc1)N1CCc2c([nH]c3ccc(Cl)cc23)C1c1ccc(OC2COC(c3ccccc3)OC2)cc1 (stereo not drawn) [Compound 1569] | < 0.008 µM |
| Cc1cc(NCCOc2ccc(C3c4[nH]c5ccc(Cl)cc5c4CCN3C(=O)Oc3ccc(Cl)cc3)cc2)on1 (stereo not drawn) [Compound 1419] | 0.008 to 0.04 µM |
| CCS(=O)(=O)NCC(O)CCOc1ccc([C@H]2c3[nH]c4ccc(Cl)cc4c3CCN2C(=O)Oc2ccc(C)cc2)cc1 (stereo partly drawn) [Compound 1646] | < 0.008 µM |
| N#Cc1cn(CCOc2ccc(C3c4[nH]c5ccc(Cl)cc5c4CCN3C(=O)Oc3ccc(Cl)cc3)cc2)nc1N (stereo not drawn) [Compound 1421] | < 0.008 µM |
| Nc1ccn(CCOc2ccc(C3c4[nH]c5ccc(Cl)cc5c4CCN3C(=O)Oc3ccc(Cl)cc3)cc2)n1 (stereo not drawn) [Compound 1417] | < 0.008 µM |
| CCCOC(=O)NCC(O)COc1ccc(C2c3[nH]c4ccc(Cl)cc4c3CCN2C(=O)Oc2ccc(Cl)cc2)cc1 (stereo not drawn) [Compound 1563] | 0.008 to 0.04 µM |
| O=C(Oc1ccc(Cl)cc1)N1CCc2c([nH]c3ccc(Cl)cc23)C1c1ccc(OCCNc2ncncn2)cc1 (stereo not drawn) [Compound 1442] | < 0.008 µM |
| COc1ccc(OC(=O)N2CCc3c([nH]c4ccc(Cl)cc34)C2c2ccc(OCC#N)cc2)cc1 (stereo not drawn) [Compound 1549] | 0.008 to 0.04 µM |
| O=C(Oc1ccc(F)cc1)N1CCc2c([nH]c3ccc(Br)cc23)C1c1ccc(OCC(O)CO)cc1 (stereo not drawn) [Compound 1343] | < 0.008 µM |
| O=C(Oc1ccc(Cl)cc1)N1CCc2c([nH]c3ccc(Cl)cc23)[C@@H]1c1ccc(OCCC(O)CNS(=O)(=O)C2CC2)cc1 (stereo partly drawn) [Compound 1639] | < 0.008 µM |
| CCOC(=O)NC[C@H](O)COc1ccc([C@H]2c3[nH]c4ccc(Cl)cc4c3CCN2C(=O)Oc2ccc(F)cc2)cc1 [Compound 1663] | < 0.008 µM |
| [H]/N=c1\sc(C)cn1CCOc1ccc([C@H]2c3[nH]c4ccc(Cl)cc4c3CCN2C(=O)Oc2ccc(Cl)cc2)cc1 [Compound 1568] | 0.008 to 0.04 µM |
| CCC(=O)NCC(O)CCOc1ccc([C@H]2c3[nH]c4ccc(Cl)cc4c3CCN2C(=O)Oc2ccc(Cl)cc2)cc1 (stereo partly drawn) [Compound 1625] | < 0.008 µM |
